Active and inactive are the calls of the source. No rule for the calls is given here.
Test system: CCRIS mutagenicity, Ames/micronucleus/aberration tests
Assay: CCRIS mutagenicity studies
[1] = Test System: AMES SALMONELLA TYPHIMURIUM, Strain/Indicator: TA98, Metabolic Activation: NONE, Method: STANDARD PLATE
[2] = Test System: AMES SALMONELLA TYPHIMURIUM, Strain/Indicator: TA98, Metabolic Activation: RAT, LIVER, S-9, AROCLOR 1254, Method: STANDARD PLATE
[3] = Test System: AMES SALMONELLA TYPHIMURIUM, Strain/Indicator: TA100, Metabolic Activation: NONE, Method: PREINCUBATION
[4] = Test System: AMES SALMONELLA TYPHIMURIUM, Strain/Indicator: TA100, Metabolic Activation: NONE, Method: STANDARD PLATE
[5] = Test System: AMES SALMONELLA TYPHIMURIUM, Strain/Indicator: TA100, Metabolic Activation: RAT, LIVER, S-9, AROCLOR 1254, Method: STANDARD PLATE
[6] = Test System: AMES SALMONELLA TYPHIMURIUM, Strain/Indicator: TA1535, Metabolic Activation: NONE, Method: STANDARD PLATE
[7] = Test System: AMES SALMONELLA TYPHIMURIUM, Strain/Indicator: TA1535, Metabolic Activation: RAT, LIVER, S-9, AROCLOR 1254, Method: STANDARD PLATE
[8] = Test System: AMES SALMONELLA TYPHIMURIUM, Strain/Indicator: TA1537, Metabolic Activation: NONE, Method: STANDARD PLATE
[9] = Test System: AMES SALMONELLA TYPHIMURIUM, Strain/Indicator: TA1537, Metabolic Activation: RAT, LIVER, S-9, AROCLOR 1254, Method: STANDARD PLATE
[10] = Test System: AMES SALMONELLA TYPHIMURIUM, Strain/Indicator: TA98, Metabolic Activation: NONE, Method: PREINCUBATION
[11] = Test System: AMES SALMONELLA TYPHIMURIUM, Strain/Indicator: TA1535, Metabolic Activation: NONE, Method: PREINCUBATION
[12] = Test System: AMES SALMONELLA TYPHIMURIUM, Strain/Indicator: TA1537, Metabolic Activation: NONE, Method: PREINCUBATION

## O=C(O)Cc1c[nH]c2ccccc12
Test System: AMES SALMONELLA TYPHIMURIUM, Strain/Indicator: TA97A, Metabolic Activation: NONE, Method: STANDARD PLATE
  mutagenic call: inactive; negative
Test System: AMES SALMONELLA TYPHIMURIUM, Strain/Indicator: TA97A, Metabolic Activation: RAT, LIVER, S-9, AROCLOR 1254, Method: STANDARD PLATE
  mutagenic call: inactive; negative
[1]
  mutagenic call: inactive; negative
Test System: AMES SALMONELLA TYPHIMURIUM, Strain/Indicator: TA98, Metabolic Activation: RAT LIVER S-9, 3-METHYLCHOLANTHRENE AND PHENOBARBITAL, Method: STANDARD PLATE
  mutagenic call: inactive; negative
[2]
  mutagenic call: inactive; negative
[3]
  mutagenic call: inactive; negative
[4]
  mutagenic call: inactive; negative
Test System: AMES SALMONELLA TYPHIMURIUM, Strain/Indicator: TA100, Metabolic Activation: RAT LIVER S-9, 3-METHYLCHOLANTHRENE AND PHENOBARBITAL, Method: STANDARD PLATE
  mutagenic call: inactive; negative
[5]
  mutagenic call: inactive; negative
[6]
  mutagenic call: inactive; negative
[7]
  mutagenic call: inactive; negative
[8]
  mutagenic call: inactive; negative
[9]
  mutagenic call: inactive; negative
Test System: AMES SALMONELLA TYPHIMURIUM, Strain/Indicator: TA1538, Metabolic Activation: NONE, Method: STANDARD PLATE
  mutagenic call: inactive; negative
Test System: AMES SALMONELLA TYPHIMURIUM, Strain/Indicator: TA1538, Metabolic Activation: RAT, LIVER, S-9, AROCLOR 1254, Method: STANDARD PLATE
  mutagenic call: inactive; negative

## CN1C(=O)CN=C(c2ccccc2)c2cc(Cl)ccc21
End Point: IN VITRO MICRONUCLEUS, Test System: V79 CELLS, Metabolic Activation: NONE
  mutagenic call: active; positive
End Point: IN VIVO CHROMOSOMAL ABERRATIONS, Test System: PERIPHERAL BLOOD LYMPHOCYTES, Species: HUMAN, Strain/Sex: MALE, FEMALE, Route: IV
  mutagenic call: inactive; negative
Test System: AMES SALMONELLA TYPHIMURIUM, Strain/Indicator: TA97, Metabolic Activation: HAMSTER, LIVER, S-9, AROCLOR 1254 (10 OR 30%), Method: PREINCUBATION
  mutagenic call: inactive; negative
Test System: AMES SALMONELLA TYPHIMURIUM, Strain/Indicator: TA97, Metabolic Activation: NONE, Method: PREINCUBATION
  mutagenic call: inactive; negative
Test System: AMES SALMONELLA TYPHIMURIUM, Strain/Indicator: TA97, Metabolic Activation: RAT, LIVER, S-9, AROCLOR 1254 (10 OR 30%), Method: PREINCUBATION
  mutagenic call: inactive; negative
Test System: AMES SALMONELLA TYPHIMURIUM, Strain/Indicator: TA98, Metabolic Activation: HAMSTER, LIVER, S-9, AROCLOR 1254 (10 OR 30%), Method: PREINCUBATION
  mutagenic call: inactive; negative
[10]
  mutagenic call: inactive; negative
[1]
  mutagenic call: inactive; negative
Test System: AMES SALMONELLA TYPHIMURIUM, Strain/Indicator: TA98, Metabolic Activation: RAT, LIVER, S-9, AROCLOR 1254 (10 OR 30%), Method: PREINCUBATION
  mutagenic call: inactive; negative
[2]
  mutagenic call: inactive; negative
Test System: AMES SALMONELLA TYPHIMURIUM, Strain/Indicator: TA100, Metabolic Activation: HAMSTER, LIVER, S-9, AROCLOR 1254 (10 OR 30%), Method: PREINCUBATION
  mutagenic call: inactive; negative
[3]
  mutagenic call: inactive; negative
[4]
  mutagenic call: inactive; negative
Test System: AMES SALMONELLA TYPHIMURIUM, Strain/Indicator: TA100, Metabolic Activation: RAT, LIVER, S-9, AROCLOR 1254 (10 OR 30%), Method: PREINCUBATION
  mutagenic call: inactive; negative
[5]
  mutagenic call: inactive; negative
Test System: AMES SALMONELLA TYPHIMURIUM, Strain/Indicator: TA1535, Metabolic Activation: HAMSTER, LIVER, S-9, AROCLOR 1254 (10 OR 30%), Method: PREINCUBATION
  mutagenic call: inactive; negative
[11]
  mutagenic call: inactive; negative
[6]
  mutagenic call: inactive; negative
Test System: AMES SALMONELLA TYPHIMURIUM, Strain/Indicator: TA1535, Metabolic Activation: RAT, LIVER, S-9, AROCLOR 1254 (10 OR 30%), Method: PREINCUBATION
  mutagenic call: inactive; negative
[7]
  mutagenic call: inactive; negative
Test System: AMES SALMONELLA TYPHIMURIUM, Strain/Indicator: TA1537, Metabolic Activation: HAMSTER, LIVER, S-9, AROCLOR 1254 (30%), Method: PREINCUBATION
  mutagenic call: inactive; negative
[12]
  mutagenic call: inactive; negative
[8]
  mutagenic call: inactive; negative
Test System: AMES SALMONELLA TYPHIMURIUM, Strain/Indicator: TA1537, Metabolic Activation: RAT, LIVER, S-9, AROCLOR 1254 (30%), Method: PREINCUBATION
  mutagenic call: inactive; negative
[9]
  mutagenic call: inactive; negative

## COc1cc(OC)c(OC)cc1C=O
Test System: AMES SALMONELLA TYPHIMURIUM, Strain/Indicator: TA98, Metabolic Activation: HAMSTER, LIVER, S-9, AROCLOR 1254 (10%), Method: PREINCUBATION
  mutagenic call: inactive; negative
[10]
  mutagenic call: inactive; negative
Test System: AMES SALMONELLA TYPHIMURIUM, Strain/Indicator: TA98, Metabolic Activation: RAT, LIVER, S-9, AROCLOR 1254 (10%), Method: PREINCUBATION
  mutagenic call: inactive; negative
Test System: AMES SALMONELLA TYPHIMURIUM, Strain/Indicator: TA100, Metabolic Activation: HAMSTER, LIVER, S-9, AROCLOR 1254 (10%), Method: PREINCUBATION
  mutagenic call: inactive; negative
[3]
  mutagenic call: inactive; negative
Test System: AMES SALMONELLA TYPHIMURIUM, Strain/Indicator: TA100, Metabolic Activation: RAT LIVER S-9, AROCLOR 1254, Method: PREINCUBATION
  mutagenic call: inactive; negative
Test System: AMES SALMONELLA TYPHIMURIUM, Strain/Indicator: TA100, Metabolic Activation: RAT, LIVER, S-9, AROCLOR 1254 (10%), Method: PREINCUBATION
  mutagenic call: inactive; negative
Test System: AMES SALMONELLA TYPHIMURIUM, Strain/Indicator: TA102, Metabolic Activation: NONE, Method: PREINCUBATION
  mutagenic call: inactive; negative
Test System: AMES SALMONELLA TYPHIMURIUM, Strain/Indicator: TA102, Metabolic Activation: RAT LIVER S-9, AROCLOR 1254, Method: PREINCUBATION
  mutagenic call: inactive; negative
Test System: AMES SALMONELLA TYPHIMURIUM, Strain/Indicator: TA104, Metabolic Activation: NONE, Method: PREINCUBATION
  mutagenic call: inactive; negative
Test System: AMES SALMONELLA TYPHIMURIUM, Strain/Indicator: TA104, Metabolic Activation: RAT LIVER S-9, AROCLOR 1254, Method: PREINCUBATION
  mutagenic call: inactive; negative
Test System: AMES SALMONELLA TYPHIMURIUM, Strain/Indicator: TA1535, Metabolic Activation: HAMSTER, LIVER, S-9, AROCLOR 1254 (10%), Method: PREINCUBATION
  mutagenic call: inactive; negative
[11]
  mutagenic call: inactive; negative
Test System: AMES SALMONELLA TYPHIMURIUM, Strain/Indicator: TA1535, Metabolic Activation: RAT, LIVER, S-9, AROCLOR 1254 (10%), Method: PREINCUBATION
  mutagenic call: inactive; negative
Test System: AMES SALMONELLA TYPHIMURIUM, Strain/Indicator: TA1537, Metabolic Activation: HAMSTER, LIVER, S-9, AROCLOR 1254 (10%), Method: PREINCUBATION
  mutagenic call: inactive; negative
[12]
  mutagenic call: inactive; negative
Test System: AMES SALMONELLA TYPHIMURIUM, Strain/Indicator: TA1537, Metabolic Activation: RAT, LIVER, S-9, AROCLOR 1254 (10%), Method: PREINCUBATION
  mutagenic call: inactive; negative
Test System: MOUSE LYMPHOMA, Strain/Indicator: L5178Y (TK+/TK-), Metabolic Activation: RAT, LIVER, S-9, AROCLOR 1254, Method: SUSPENSION/PLATE
  mutagenic call: active; positive. reevaluation of results: equivocal
Test System: Mouse lymphoma, Strain/Indicator: L5178Y (tk+/tk-), Metabolic Activation: None, Method: Suspension/plate
  mutagenic call: inactive; negative
